Results reported in patent US5168102A, “Endocrine manipulation to improve body composition of poultry” (priority 1990, dated 1992).
“Also recorded” adds a separate entry of the source. Where two headings read alike, the source gives them in different places.

How the values were obtained:
[1] = exogenous; cited from earlier work
[2] = Example 3: growth performance, graded doses of dietary T3; format: in vivo, broiler cockerels; conditions: for Average Daily Gain: week no. 5 to 7
Method: Day-old broiler cockerels were randomly assigned to 24 pens (5 birds/pen) in a battery brooder. The total duration of the bird management period lasted from 7 to 8 weeks. Hereafter, the end of the first week of life of the birds is referred to as week no. 1 (i.e. 7 days of life), the end of the second week as week no. 2, etc. At week no. 3, four birds from each pen were transferred to wire grow-out cages. […] 5 to week no. 7 (4 pens/treatment). Body weight and feed consumption were determined at weekly intervals. A 5 ml blood sample was obtained from each bird at week no. 7 and stored at -20° C. until assayed for plasma hormones.
Data were analyzed by analysis of variance for a randomized complete-block design. Data for ADG, ADFC and FTG were based on pen average. Unless otherwise indicated, data used for analysis was obtained from individual birds. Difference among treatments were tested by Fisher's protected LSD method.

[3] = Example 2: growth and feed efficiency, dietary T3 and ncGH injection; format: in vivo, broiler cockerels (Ross X Arbor Acre)
Method: (§1) Forty-eight 3-week-old broiler cockerels (Ross X Arbor Acre) were randomly divided into four treatment groups that contained three pens of four birds. The birds were housed in a controlled-environment room under a 20 hour light/4 hour dark cycle with feed and water provided ad libitum.
(§2) The preparation of ncGH used in this study was from the same lot used in Example 1.
(§3) Body weights and feed consumption was determined at weekly intervals although the ADG, ADFC and FTG ratio was determined over the 21 day period. […] At the conclusion of the study (6 weeks-of-age), birds were killed and the abdominal fat removed and weighed. The liver and abdominal fat were returned to the carcass which was frozen for proximate analysis as described in […]

[4] = Example 3: plasma hormone levels (RIA); format: in vivo, broiler cockerels
Method: Day-old broiler cockerels were randomly assigned to 24 pens (5 birds/pen) in a battery brooder. The total duration of the bird management period lasted from 7 to 8 weeks. […] 3, four birds from each pen were transferred to wire grow-out cages. […] Body weight and feed consumption were determined at weekly intervals. A 5 ml blood sample was obtained from each bird at week no. 7 and stored at -20° C. until assayed for plasma hormones.
Equilibrium, double antibodies radioimmunoassays (RIA) were used to determine plasma levels of chicken growth hormone (GH) according to Proudman, Proc. Soc. […] Plasma insulin was quantified by using nonequilibrium RIA described by McMurtry et al., Poult. […] Plasma level of insulin-like growth factor-I (IGF-I) was determined by heterologous RIA in accordance with McGuinness.

[5] = Example 2: final body weight, liver, abdominal fat and body composition; format: in vivo, broiler cockerels (Ross X Arbor Acre)
Method: as §1, §2, §3

[6] = From the text: Referring now to broiler chickens as a benchmark for the beneficial effects of this invention, it must be noted that these chickens grow from a weight of 30 to 50 grams at hatching to about 1.5-3 or even as much as 5 kilograms of body weight at market age. Of this market weight, 15-20 wt.-% is protein, 2-3 wt.-% is inorganic (showing up as ash in proximate analysis of body composition), and more than 10 wt.-% (e.g. 10-20 wt.-%) is fat, which means that the protein:fat ratio (by weight) is likely to be at or below 1.5:1 and certainly well below 2:1.
[7] = plasma thyroid hormone bioactivity 360-1200% of normal

SMILES: N[C@@H](Cc1cc(I)c(Oc2ccc(O)c(I)c2)c(I)c1)C(=O)O [T3, 3,3',5-triiodo-L-thyronine]
- growth deficit of hypophysectomized chickens [1]: correct the growth deficit
- effect on ADFC and GTF ([2]; 0.25 and 1.0 ppm): did not affect the ADFC and GTF
- effect on ADG ([2]; 0.25 ppm): the decrease in 0.25 ppm-fed birds was not significant
- Average Daily Feed Consumption ([2]; 0.25 ppm of feed): 150.2 ± 10.0 g
- Gain-To-Feed Ratio ([2]; 0.25 ppm of feed): 0.441 ± .014
- Average Daily Gain ([2]; 0.25 ppm of feed): 66.5 ± 6.0 g
- Average Daily Feed Consumption ([2]; 1.0 ppm of feed): 139.0 ± 4.6 g
- Gain-To-Feed Ratio ([2]; 1.0 ppm of feed): 0.409 ± 0.01
- Average Daily Gain ([2]; 1.0 ppm of feed): 57.0 ± 3.0 g
- ADFC, reduction ([2]; 4.0 ppm (p<0.05)): 35%
- gain to feed ratio (GTF), reduction ([2]; 4.0 ppm (p<0.05)): 33%
- Average Daily Feed Consumption ([2]; 4.0 ppm of feed): 99.5 ± 1.7 g
- Gain-To-Feed Ratio ([2]; 4.0 ppm of feed): 0.302 ± .013
- Average Daily Gain ([2]; 4.0 ppm of feed): 30.0 ± 1.1 g
- body weight gain, depression [2, 7]: ≤ 57%
- feed consumption, depression [2, 7]: ≤ 35%
- ADFC ([3]; 1 ppm T3 and/or ncGH 100 μg/kg/day, 21 days): 117.9 ± 0.8 g/bird/day
- ADG ([3]; 1 ppm T3 in feed and/or ncGH 100 μg/kg/day i.m., 3 to 6 weeks, mean ±SEM of 3 pens): 52.6 ± 1.0 g/bird/day
- effect on ADG, ADFC and FTG ratio ([3]; 21 days): not affected
- glucagon secretion, increase ([4]; 0.25 ppm): 16%
- plasma T3 level, fold elevation ([4]; 0.25 ppm): 2.1 fold
- plasma insulin, reduction ([4]; 0.25 ppm): 27%
- I/G ratio, reduction ([4]; 0.25 ppm (p<0.05)): 31%
- I/G Ratio (molar) ([4]; 0.25 ppm of feed): 0.81 ± .20
- plasma GH ([4]; 0.25 ppm of feed): 2.0 ± 0.4 ng/mL
- plasma Glucagon ([4]; 0.25 ppm of feed): 656 ± 75 pg/mL
- plasma IGF-I ([4]; 0.25 ppm of feed): 100.7 ± 2.9 ng eg/ml
- plasma Insulin ([4]; 0.25 ppm of feed): 772 ± 155 pg/mL
- plasma T4 ([4]; 0.25 ppm of feed): 6.3 ± 0.6 ng/mL
- effect on plasma IGF-1 level ([4]; 0.25 to 4.0 ppm): only reduced (p<0.05) by the 4.0 ppm level
- I/G molar ratio, reduction ([4]; 1 or 4 ppm (p<0.05)): 70-76%
- glucagon secretion, increase ([4]; 1.0 ppm (p<0.05)): 44%
- plasma insulin, reduction ([4]; 1.0 ppm (p<0.05)): 60%
- I/G Ratio (molar) ([4]; 1.0 ppm of feed): 0.35 ± .06
- plasma GH ([4]; 1.0 ppm of feed): 2.1 ± 0.4 ng/mL
- plasma Glucagon ([4]; 1.0 ppm of feed): 816 ± 64 pg/mL
- plasma IGF-I ([4]; 1.0 ppm of feed): 97.7 ± 6.3 ng eg/ml
- plasma Insulin ([4]; 1.0 ppm of feed): 426 ± 65 pg/mL
- plasma T4 ([4]; 1.0 ppm of feed): 6.2 ± 0.6 ng/mL
- plasma T3 level, fold elevation ([4]; 4 ppm): 12.6 fold
- glucagon secretion, increase ([4]; 4.0 ppm (p<0.05)): 46%
- plasma insulin, reduction ([4]; 4.0 ppm (p<0.05)): 68%
- Plasma T3 level (control group = 100% of normal) ([4]; 4 ppm in feed): ~ 1254%
- I/G Ratio (molar) ([4]; 4.0 ppm of feed): 0.28 ± .08
- plasma GH ([4]; 4.0 ppm of feed): 1.8 ± 0.2 ng/mL
- plasma Glucagon ([4]; 4.0 ppm of feed): 824 ± 61 pg/mL
- plasma IGF-I ([4]; 4.0 ppm of feed): 58.8 ± 8.2 ng eg/ml
- plasma Insulin ([4]; 4.0 ppm of feed): 344 ± 92 pg/mL
- plasma T4 ([4]; 4.0 ppm of feed): 5.1 ± 0.8 ng/mL
- effect on plasma GH levels ([4]; all dietary T3 levels): decreased (p<0.05); also recorded: decrease plasma GH levels
- plasma T4 level, decrease ([4]; regardless of dose level (p<0.05)): 67%
- body fat content (% BW), reduction ([5]; 1 ppm T3, with or without ncGH): 16%
- abdominal fat content, reduction ([5]; 1 ppm T3, with or without ncGH (P<0.05)): 28%
- Body Weight (BW), final ([5]; 1 ppm T3 and/or ncGH 100 μg/kg/day, 6 weeks-of-age, N = 12): 1.86 ± .048 kg
- Abdominal Fat, relative weight ([5]; N = 12): 1.86 ± .396 % BW
- Body composition: Ash ([5]; N = 12): 2.40 ± .054 % BW
- Body composition: Fat ([5]; N = 12): 13.2 ± .62 % BW
- Body composition: Protein ([5]; N = 12): 17.3 ± .36 % BW
- Body composition: Water ([5]; N = 12): 65.5 ± .60 % BW
- Liver, relative weight ([5]; N = 12): 2.54 ± .096 % BW
- effect on body water and ash contents ([5]; in vivo): increased
- effect on weight gain ([6]; 0.1 ppm): no significant adverse effect upon weight gain can be detected
- protein content of the carcass relative to fat content ([6]; 0.1 ppm): improved relative to fat content
- effect on growth rate ([6]; 0.25 ppm): virtually no statistically significant adverse effect on growth rate
- effect on weight gain ([6]; 1 ppm): some deviation from normal weight gain is observed
